Experimental data as given in publication PMC12251307, “One-Pot Synthesis of Novel Pyrimidine Derivatives with Potential Antidiabetic Activity Through Dual α-Glucosidase and α-Amylase Inhibitors” (Molecules, 2025).

Key:
α-glucosidase = α-glucosidase activity assay (colorimetric kit); type: biochemical; conditions: IC50 ± SD, n = 5; acarbose as standard drug
Protocol: (§1) All chemicals were supplied from Sigma-Aldrich (St. Louis, MO, USA). Melting points were determined via the Stuart SMP10 Digital Advanced MP apparatus (Cole-Parmer Ltd., Stone, UK) and are uncorrected. FTIR spectra were carried out on PerkinElmer (FTIR spectrometer, PerkinElmer Inc., Waltham, MA, USA), which mixed without using anhydrous KBr. The NMR spectra were recorded by JEOL RESONANCE spectrometer (Akishima, Japan) 500 MHZ by using DMSO-d6 as the solvent and chemical shifts (δ) and were recorded in parts per million (ppm) using tetramethyl silane (TMS) as the internal standard. The mass spectra were carried out on LC/MS spectroscopy (LCMS-8040 Shimadzu, Kyoto, Japan, model CAT-30A). Serial no. L20574900241 AE, 220–240 v~50/60 HZ 300 VA was used to record LCMS spectral data for samples. Elemental microanalysis was done on a Carlo Erba analyzer model 110 (Carlo Erba Instruments, Milan, Italy). Also used were α-amylase Assay Kit (Colorimetric) […] (Abcam, Cambridge, MA, USA), α-glucosidase Activity Assay Kit (Colorimetric) […] (Abcam, Cambridge, MA, USA), and Elisa: BioTek (Winooski, VT, USA) introduces Synergy Neo2 high performance Multi-Mode Microplate Reader.
The α-glucosidase activity assay was conducted as we reported earlier. Samples (50 μL) were added to 96 wells, and the volume was adjusted to 100 μL/well with an assay buffer. For the reaction, 50 μL of reaction mix for each reaction were performed by adding assay buffer 47 μL and substrate mix 3 μL.

α-amylase = α-amylase activity assay (colorimetric kit); type: biochemical; conditions: IC50 ± SD, n = 5; acarbose as standard drug
Protocol: as §1
The % inhibition was calculated as follows:% Inhibition = (Absorbancecontrol − Absorbancecompound) × 100/Absorbancecontrol

Structure (SMILES) | IC50 (α-glucosidase) [µM] | IC50 (α-amylase) [µM]
COc1cc(NNC(=S)Nc2cccc(C#N)c2)nc(N)n1 [Compound 17, 2-(2-Amino-6-methoxypyrimidin-4-yl)-N-(3-cyanophenyl)hydrazine Carbothioamide] | 42.19 ± 0.13 | 40.16 ± 0.11
COc1cc(NNC(=S)Nc2ccc(C)cc2)nc(N)n1 [Compound 16, 2-(2-Amino-6-methoxypyrimidin-4-yl)-N-(p-tolyl)hydrazine Carbothioamide] | 36.14 ± 0.12 | 34.24 ± 0.16
COc1cc(NNC(=S)Nc2cccc(Cl)c2)nc(N)n1 [Compound 6, 2-(2-Amino-6-methoxypyrimidin-4-yl)-N-(3-chlorophenyl) Hydrazine Carbothioamide] | 16.13 ± 0.11 | 15.17 ± 0.07
COc1cc(NNC(=S)Nc2cccc(Br)c2)nc(N)n1 [Compound 9, 2-(2-Amino-6-methoxypyrimidin-4-yl)-N-(3-bromophenyl)-hydrazine Carbothioamide] | 19.11 ± 0.11 | 18.16 ± 0.08
COc1cc(NNC(=S)Nc2cccc([N+](=O)[O-])c2)nc(N)n1 [Compound 11, 2-(2-Amino-6-methoxypyrimidin-4-yl)-N-(3-nitrophenyl)hydrazine Carbothioamide] | 22.11 ± 0.13 | 21.14 ± 0.12
COc1cc(NNC(=S)Nc2cccc(F)c2)nc(N)n1 [Compound 4, 2-(2-Amino-6-methoxypyrimidin-4-yl)-N-(3-fluorophenyl)hydrazine Carbothioamide] | 12.16 ± 0.12 | 11.1 ± 0.12
COc1cccc(NC(=S)NNc2cc(OC)nc(N)n2)c1 [Compound 14, 2-(2-Amino-6-methoxypyrimidin-4-yl)-N-(3-methoxyphenyl)-hydrazine Carbothioamide] | 30.12 ± 0.13 | 33.18 ± 0.14
